Laboratory results: ChEMBL document CHEMBL1122874, “Orally absorbable cephalosporin antibiotics. 1. Structure-activity relationships of benzothienyl- and naphthylglycine derivatives of 7-aminodeacetoxycephalosporanic acid” (1985)
In brackets after ≈: the same amount, converted by molar mass.

What was measured:
Streptococcus pneumoniae [1] = test: Antibacterial activity against Streptococcus pneumoniae Park.
Staphylococcus aureus [2] = test: Antibacterial activity against methicillin resistant Staphylococcus aureus S13E.; type: functional
[3] = system: Staphylococcus epidermidis; test: Antibacterial activity against Staph. epidermis EP11; type: functional
Streptococcus = test: Antibacterial activity against Streptococcus group D X66.; type: functional
Haemophilus influenzae [4] = test: Antibacterial activity against resistant Haemophilus influenzae 76.; type: functional
Streptococcus pneumoniae [5] = test: Antibacterial activity against Streptococcus pneumoniae Park.; type: functional
Haemophilus influenzae [6] = test: Antibacterial activity against sensitive Haemophilus influenzae C.L.; type: functional
Staphylococcus aureus [7] = test: Antibacterial activity against penicillin G sensitive Staphylococcus aureus X1.1.; type: functional
Streptococcus pyogenes [8] = test: Antibacterial activity against Streptococcus pyogenes C203.; type: functional
Staphylococcus aureus [9] = test: Antibacterial activity against methicillin resistant Staphylococcus aureus X400; type: functional
Staphylococcus aureus [10] = test: Antibacterial activity against penicillin G sensitive Staphylococcus aureus V41; type: functional
Streptococcus pyogenes [11] = test: Antibacterial activity in mice infected with Streptococcus pyogenes C203 by oral administration; type: functional
Streptococcus pneumoniae [12] = test: Antibacterial activity in mice infected with Streptococcus pneumoniae Park1; type: functional
Streptococcus pyogenes [13] = test: Antibacterial activity in mice infected with Streptococcus pyogenes C203 by subcutaneous administration; type: functional
Staphylococcus aureus [14] = test: Antibacterial activity in mice infected with Staphylococcus aureus 3055 by subcutaneous administration; type: functional
Streptococcus pyogenes [15] = test: Antibacterial activity in mice infected with Streptococcus pyogenes C203; type: functional
Streptococcus pneumoniae [16] = test: Antibacterial activity in mice infected with Streptococcus pneumoniae Park1 by subcutaneous administration; type: functional
Staphylococcus aureus [17] = test: Antibacterial activity in mice infected with Staphylococcus aureus 3055 by oral administration; type: functional
Streptococcus pneumoniae [18] = test: Antibacterial activity in mice infected with Streptococcus pneumoniae Park1 by oral administration; type: functional
Staphylococcus aureus [19] = test: Antibacterial activity in mice infected with Staphylococcus aureus 3055; type: functional

SMILES	MIC (Streptococcus pneumoniae [1]) [µg/mL]	MIC (Staphylococcus aureus [2]) [µg/mL]	MIC [3] [µg/mL]	MIC (Streptococcus) [µg/mL]	MIC (Haemophilus influenzae [4]) [µg/mL]	MIC (Streptococcus pneumoniae [5]) [µg/mL]	MIC (Haemophilus influenzae [6]) [µg/mL]	MIC (Staphylococcus aureus [7]) [µg/mL]	MIC (Streptococcus pyogenes [8]) [µg/mL]	MIC (Staphylococcus aureus [9]) [µg/mL]	MIC (Staphylococcus aureus [10]) [µg/mL]	ED50 (Streptococcus pyogenes [11]) [mg/kg]	MIC (Streptococcus pneumoniae [12]) [µg/mL]	ED50 (Streptococcus pyogenes [13]) [mg/kg]	ED50 (Staphylococcus aureus [14]) [mg/kg]	MIC (Streptococcus pyogenes [15]) [µg/mL]	ED50 (Streptococcus pneumoniae [16]) [mg/kg]	ED50 (Staphylococcus aureus [17]) [mg/kg]	ED50 (Streptococcus pneumoniae [18]) [mg/kg]	MIC (Staphylococcus aureus [19]) [µg/mL]
CC1=C(C(=O)O)N2C(=O)C(NC(=O)[C@H](N)c3csc4cc(F)ccc34)C2SC1 (some centres undefined)	0.5 (≈ 1.19 µM)	8 (≈ 19 µM)	4 (≈ 9.49 µM)	128 (≈ 304 µM)	–	–	–	–	–	–	–	–	–	–	–	–	–	–	–	–
CC1=C(C(=O)O)N2C(=O)C(NC(=O)[C@H](N)c3csc4cccc(F)c34)C2SC1 (some centres undefined)	–	–	–	–	4 (≈ 9.49 µM)	4 (≈ 9.49 µM)	16 (≈ 38 µM)	4 (≈ 9.49 µM)	1 (≈ 2.37 µM)	–	–	–	–	–	–	–	–	–	–	–
CC1=C(C(=O)O)N2C(=O)C(NC(=O)[C@H](N)c3csc4c(F)cccc34)C2SC1 (some centres undefined)	0.5 (≈ 1.19 µM)	8 (≈ 19 µM)	4 (≈ 9.49 µM)	–	0.5 (≈ 1.19 µM)	–	4 (≈ 9.49 µM)	0.5 (≈ 1.19 µM)	0.125 (≈ 0.297 µM)	128 (≈ 304 µM)	16 (≈ 38 µM)	–	–	–	–	–	–	–	–	–
CC1=C(C(=O)O)N2C(=O)C(NC(=O)[C@H](N)c3csc4cc(Cl)ccc34)C2SC1 (some centres undefined)	1 (≈ 2.28 µM)	8 (≈ 18.3 µM)	4 (≈ 9.13 µM)	128 (≈ 292 µM)	1 (≈ 2.28 µM)	–	8 (≈ 18.3 µM)	1 (≈ 2.28 µM)	0.5 (≈ 1.14 µM)	16 (≈ 36.5 µM)	8 (≈ 18.3 µM)	–	–	–	–	–	–	–	–	–
CC1=C(C(=O)O)N2C(=O)C(NC(=O)[C@H](N)c3ccc4cc(Cl)ccc4c3)C2SC1 (some centres undefined)	0.25 (≈ 0.579 µM)	8 (≈ 18.5 µM)	4 (≈ 9.26 µM)	64 (≈ 148 µM)	2 (≈ 4.63 µM)	–	32 (≈ 74.1 µM)	0.25 (≈ 0.579 µM)	0.06 (≈ 0.139 µM)	64 (≈ 148 µM)	8 (≈ 18.5 µM)	–	–	–	–	–	–	–	–	–
COc1ccc2c([C@@H](N)C(=O)NC3C(=O)N4C(C(=O)O)=C(C)CSC34)csc2c1 (some centres undefined)	0.125 (≈ 0.288 µM)	4 (≈ 9.23 µM)	4 (≈ 9.23 µM)	–	4 (≈ 9.23 µM)	–	32 (≈ 73.8 µM)	1 (≈ 2.31 µM)	0.125 (≈ 0.288 µM)	16 (≈ 36.9 µM)	8 (≈ 18.5 µM)	–	–	–	–	–	–	–	–	–
CC1=C(C(=O)O)N2C(=O)C(NC(=O)[C@H](N)c3ccc4cccc(Cl)c4c3)C2SC1 (some centres undefined)	0.25 (≈ 0.579 µM)	1 (≈ 2.32 µM)	1 (≈ 2.32 µM)	16 (≈ 37 µM)	0.5 (≈ 1.16 µM)	–	8 (≈ 18.5 µM)	0.5 (≈ 1.16 µM)	0.25 (≈ 0.579 µM)	4 (≈ 9.26 µM)	1 (≈ 2.32 µM)	–	–	–	–	–	–	–	–	–
CC1=C(C(=O)O)N2C(=O)C(NC(=O)[C@H](N)c3ccc4ccccc4c3)C2SC1 (some centres undefined)	0.5 (≈ 1.26 µM)	8 (≈ 20.1 µM)	4 (≈ 10.1 µM)	64 (≈ 161 µM)	2 (≈ 5.03 µM)	–	8 (≈ 20.1 µM)	0.5 (≈ 1.26 µM)	0.125 (≈ 0.315 µM)	64 (≈ 161 µM)	8 (≈ 20.1 µM)	3.4	1 (≈ 2.52 µM)	2	0.07	0.125 (≈ 0.315 µM)	17.6	0.41	> 25	0.5 (≈ 1.26 µM)
CC1=C(C(=O)O)N2C(=O)C(NC(=O)[C@@H](N)c3cc4c(Cl)cccc4s3)C2SC1 (some centres undefined)	0.5 (≈ 1.14 µM)	4 (≈ 9.13 µM)	2 (≈ 4.57 µM)	64 (≈ 146 µM)	1 (≈ 2.28 µM)	–	32 (≈ 73.1 µM)	0.5 (≈ 1.14 µM)	0.125 (≈ 0.285 µM)	16 (≈ 36.5 µM)	4 (≈ 9.13 µM)	–	–	–	–	–	–	–	–	–
CC1=C(C(=O)O)N2C(=O)C(NC(=O)[C@H](N)c3cccc4ccc(Cl)cc34)C2SC1 (some centres undefined)	–	4 (≈ 9.26 µM)	2 (≈ 4.63 µM)	–	4 (≈ 9.26 µM)	–	16 (≈ 37 µM)	1 (≈ 2.32 µM)	0.25 (≈ 0.579 µM)	16 (≈ 37 µM)	4 (≈ 9.26 µM)	–	–	–	–	–	–	–	–	–
